Laboratory results from article PMC6706930, “A novel oral micellar fenretinide formulation with enhanced bioavailability and antitumour activity against multiple tumours from cancer stem cells” (Journal of Experimental & Clinical Cancer Research : CR, 2019).

Assay: Fecal excretion of 4-HPR and metabolites
Assay type: in vivo, mice
Design: Fecal excretion, amount: unit not given here
Method: The oral pharmacokinetics of Bio-nFeR were investigated in four independent groups of 24 mice, randomized to receive different treatment with the following fenretinide equivalent doses: 10, 50, 100 and 200 mg/Kg. The drug was administered by oral gavage and after treatment, blood samples were taken at 15 and 30 min and at 1, 2, 4, 8/10, 24 and 48 h and collected in heparinized tubes from the retro-orbital plexus of the mice under isoflurane anesthesia. Mice were then sacrificed by cervical dislocation and liver, kidney and brain were removed and immediately frozen in dry-ice for future determination. To obtain plasma, blood was centrifuged at 4000 rpm for 10 min at 4 °C. To evaluate fenretinide and metabolites excretion, urine and faeces were collected over a 0–24 h and 24–48 h periods. The collection was performed in three mice per group of treatment, individually housed into metabolic cages for urine and faeces collection. All the biological samples were stored at − 20 °C until analysis. To compare the absorption of Bio-nFeR to NCI-FeR and to study the bioavailability, another independent groups of 24 mice were randomized to receive an oral dose of 200 mg/Kg of NCI-FeR. Blood samples were taken at the time reported above. Twenty-four hours fractions of urine and faeces were collected in three mice per group of treatment. Plasma and the other biological specimens were stored at − 20 °C until analysis. Chronic study: the oral pharmacokinetic of Bio-nFeR in comparison with NCI-FeR were also investigated after chronic administrations. Mice were divided in three independent groups, randomized to receive a single treatment of 150 mg/Kg or different repeated treatments of 150 mg/Kg, daily for 2 weeks (12 days on and 2 days off), or 100 mg/Kg bi-daily for 1 week (5 days on 2 days off). Bio-nFeR and NCI-FeR were administered by oral gavage, collecting blood samples at 0.5, 1, 2, 4, 8/10 and 24 h, the day of the single treatment and at 0, 1, 2, 4, 8/10, 24 and 48 h after the last dose of both the chronic treatments. The procedures of blood collection, plasma preparation, sacrifice of mice and storing of samples were as reported in acute study. Also during chronic treatment, excretions of fenretinide and metabolites in urine and faeces were determined collecting the specimens in three mice per group, both at the start of treatment and at the end of the repeated administration. All the collected samples were stored at − 20 °C until analysis.
The determination of fenretinide in plasma of mice and the others biological samples was determined according to a method specifically developed and validated for the quantification of fenretinide (4-HPR) based on liquid chromatography-tandem mass spectrometry (LC–MS/MS) (manuscript in preparation). The procedure of sample preparation and quantification can be summarized as follows. 30 μL aliquot of plasma was added with 3 ng of deuterated internal standard (^2H4 4-HPR), deproteinized by mean of 90 μL of acetonitrile and centrifuged 5 min at 13200 rpm at room temperature. The supernatant was recovered and 5 μL injected into a HPLC system (Series 200, Perkin Elmer, MA, USA). Chromatographic separation was achieved on a Gemini-C18 column (50 mm × 2.0 mm, 5 μm particle size; Phenomenex Inc., Torrance, CA, USA) at 32 °C protected with a Security Guard™ ULTRA cartridges C18. The detection obtained by Mass spectrometric detection was carried out on a triple quadrupole API 4000 mass spectrometer (Sciex, MA, USA) equipped with atmospheric pressure chemical ionization source (APCI) operating in positive ion mode monitoring the transitions 392.3 > 283.2 m/z for 4-HPR and 396.3 > 283.2 m/z for the deuterated internal standard. To assay study samples, a calibration curve of six points (range: 1.0–500.00 ng/mL) was prepared in control mouse plasma assessing the precision and the accuracy of the run analyzing at the same time a set of freshly prepared quality controls samples. […]

[1] = 2 wks 1 daily dose 150 mg/kg Bio-nFeR
[2] = 2 wks 1 daily dose 150 mg/kg NCI-FeR
[3] = feces after 24 hours, acute Bio-nFeR 10 mg/kg
[4] = feces after 24 hours, acute Bio-nFeR 50 mg/kg
[5] = feces after 24 hours, acute Bio-nFeR 100 mg/kg
[6] = feces after 24 hours, acute Bio-nFeR 200 mg/kg
[7] = feces after 24 hours, acute NCI-FeR 200 mg/kg
[8] = single admin. 150 mg/kg Bio-nFeR
[9] = single admin. 150 mg/kg NCI-FeR

Fecal excretion, amount [1] | Fecal excretion, percent (in brackets) [1] | Fecal excretion, amount [2] | Fecal excretion, percent (in brackets) [2] | Fecal excretion, amount [3] | Fecal excretion, percent (in brackets) [3] | Fecal excretion, amount [4] | Fecal excretion, percent (in brackets) [4] | Fecal excretion, amount [5] | Fecal excretion, percent (in brackets) [5] | Fecal excretion, amount [6] | Fecal excretion, percent (in brackets) [6] | Fecal excretion, amount [7] | Fecal excretion, percent (in brackets) [7] | Fecal excretion, amount [8] | Fecal excretion, percent (in brackets) [8] | Fecal excretion, amount [9] | Fecal excretion, percent (in brackets) [9] | proportion of Bio-nFeR and NCI-FeR eliminated in faeces (acute treatment at multiple doses and chronic treatment) | SMILES
97.5 | 4.2% | 201.1 | 6.6% | 47 | 32.6% | 253.8 | 26.5% | 85.5 | 4.9% | 129.8 | 4.3% | 115.6 | 3.9% | 108.4 | 5.0% | 103.7 | 4.2% |  | CC1=C(/C=C/C(C)=C/C=C/C(C)=C/C(=O)Nc2ccc(O)cc2)C(C)(C)CCC1=O [4-oxo-4-HPR]
97.4 | 4.2% | 270 | 7.6% | 4.7 | 3.2% | 38.2 | 4.0% | 33.6 | 1.9% | 77.4 | 2.5% | 153.4 | 5.5% | 129.5 | 6.1% | 247.1 | 9.2% |  | CC1=C(/C=C/C(C)=C/C=C/C(C)=C/C(=O)Nc2ccc(O)cc2)C(C)(C)CCC1 [4-HPR, 4-hydroxy (phenyl)retinamide, reference compound]
0.9 | 0.0% | 0.8 | 0.0% | 0.03 | 0.02% | 0.5 | 0.05% | 0.7 | 0.04% | 1.2 | 0.05% | 0.4 | 0.02% | 1.6 | 0.1% | 0.4 | 0.02% | less than 0.1% | COc1ccc(NC(=O)\C=C(C)/C=C/C=C(C)\C=C\C2=C(C)CCCC2(C)C)cc1 [MPR]
